Tested on: OT-I cells
Experiment: Total OT-I cell numbers in lymphoid tissues and percentage in nasal mucosa at Day 7 (Example 1)
Format: in vivo, C57BL/6 mice
Procedure: An Ovalbumin-IRM1 conjugate was prepared as follows. IRM1 was suspended in dimethyl sulfoxide (DMSO) to 10 mg/ml. Ovalbumin was suspended in phosphate buffered saline (PBS) to 10 mg/ml and the pH adjusted to >10.0 by the addition of NaOH. 500 μL of the ovalbumin solution (5 mg ovalbumin) was mixed with 100 μL of the IRM1 solution (1 mg IRM1) in a single well of a 12-well tissue culture plate. The plate was placed on ice and a long wavelength UV light source was placed directly over the plate as close to the well containing the IRM1/ovalbumin mixture as possible. The mixture was irradiated for 15 minutes. […]
Chicken Ovalbumin-specific CD8^+ T cells (OT-I, The Jackson Laboratories, Bar Harbor, Me.) were labeled with carboxyfluoroscein succinimidyl ester (CFSE, Molecular Probes, Inc., Eugene, Oreg.), a fluorescent dye that stains cells in a stabile manner, and then adoptively transferred into syngenic C57BL/6 mice (Charles River Laboratories, Wilmington, Mass.). […] Cells were then run on a FACSCaliber (Becton, Dickinson, and Co., San Jose, Calif.) and CD8^+SIINFEKL/K^b tetramer^+ T cells were analyzed for CFSE expression.
Separately, total OT-I cell numbers at Day 7 were counted in nasal associated lymphoid tissue (NALT), cervical lymph node (CLN), and spleen (Spl). […] Additionally, the percentage of OT-I cells in the nasal mucosa at determined at Day 7. […]

SMILES: CCOCc1nc2c(N)nc3ccccc3c2n1CC(C)(C)NC(=O)CCCCCNC(=O)c1ccc(N=[N+]=[N-])cc1O [IRM1, N-[6-({2-[4-amino-2-(ethoxymethyl)-1H-imidazo[4,5-c]quinolin-1-yl]-1,1-dimethylethyl}amino)-6-oxohexyl]-4-azido-2-hydroxybenzamide]
- total OT-I cell numbers, intranasal IRM1 plus antigen versus antigen alone (Ovalbumin-IRM1 conjugate intranasal, FIG. 2): greater total OT-I cell numbers at Day 7 than antigen alone
- total OT-I cell numbers, intranasal versus intravenous delivery (Ovalbumin-IRM1 conjugate, NALT, CLN, spleen, FIG. 2A-2C): greater total OT-I cell numbers at Day 7 than intravenous delivery in all lymphoid tissues examined

Source: US20060051374A1, “Compositions and methods for mucosal vaccination” (3M Innovative Properties Company, priority 2004, published 2006)
